Results taken from PubChem BioAssay (NCI).
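1) Cells in 96-well plates. 2) Compound, 48 h, 5 concentrations. 3) Linear interpolation between surrounding doses. 4) Unreached endpoint = highest concentration. Here, GI50 denotes the concentration required for 50% inhibition of growth. TGI marks complete inhibition of growth.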

How the values were obtained:
Assay in all cases: DTP human tumour cell line panel, 48 h
KM12 colon = tested on: KM12 colon
NCI-H522 lung = tested on: NCI-H522 lung
SN12C renal = tested on: SN12C renal
SR leukemia = tested on: SR leukemia
DU-145 prostate = tested on: DU-145 prostate
SF-268 CNS = tested on: SF-268 CNS
CAKI-1 renal = tested on: CAKI-1 renal
ACHN renal = tested on: ACHN renal
SK-MEL-5 melanoma = tested on: SK-MEL-5 melanoma
NCI-H460 lung = tested on: NCI-H460 lung
TK-10 renal = tested on: TK-10 renal
786-0 renal = tested on: 786-0 renal
SF-295 CNS = tested on: SF-295 CNS
NCI-H226 lung = tested on: NCI-H226 lung
U251 CNS = tested on: U251 CNS
OVCAR-5 ovarian = tested on: OVCAR-5 ovarian
SNB-19 CNS = tested on: SNB-19 CNS
SK-MEL-2 melanoma = tested on: SK-MEL-2 melanoma
HOP-62 NSCLC = tested on: HOP-62 NSCLC
SW-620 colon = tested on: SW-620 colon
MALME-3M melanoma = tested on: MALME-3M melanoma
NCI-H23 lung = tested on: NCI-H23 lung
UACC-257 melanoma = tested on: UACC-257 melanoma
CCRF-CEM leukemia = tested on: CCRF-CEM leukemia
PC-3 prostate = tested on: PC-3 prostate
SNB-75 CNS = tested on: SNB-75 CNS
MOLT-4 leukemia = tested on: MOLT-4 leukemia
A498 renal = tested on: A498 renal
M14 melanoma = tested on: M14 melanoma
RPMI-8226 leukemia = tested on: RPMI-8226 leukemia
RXF 393 renal = tested on: RXF 393 renal
BT-549 breast = tested on: BT-549 breast
K-562 leukemia = tested on: K-562 leukemia
MDA-MB-231 breast = tested on: MDA-MB-231 breast
UACC-62 melanoma = tested on: UACC-62 melanoma
LOX IMVI melanoma = tested on: LOX IMVI melanoma
OVCAR-4 ovarian = tested on: OVCAR-4 ovarian
T-47D breast = tested on: T-47D breast
COLO 205 colon = tested on: COLO 205 colon
OVCAR-3 ovarian = tested on: OVCAR-3 ovarian
HOP-92 NSCLC = tested on: HOP-92 NSCLC
SK-MEL-28 melanoma = tested on: SK-MEL-28 melanoma
SK-OV-3 ovarian = tested on: SK-OV-3 ovarian
EKVX NSCLC = tested on: EKVX NSCLC
HCT-15 colon = tested on: HCT-15 colon
HCC-2998 colon = tested on: HCC-2998 colon
A549 NSCLC = tested on: A549 NSCLC
HS 578T breast = tested on: HS 578T breast
MCF7 breast = tested on: MCF7 breast
NCI/ADR-RES ovarian = tested on: NCI/ADR-RES ovarian
HT29 colon = tested on: HT29 colon
OVCAR-8 ovarian = tested on: OVCAR-8 ovarian
IGROV1 ovarian = tested on: IGROV1 ovarian
HCT-116 colon = tested on: HCT-116 colon
UO-31 renal = tested on: UO-31 renal
MDA-MB-435 = tested on: MDA-MB-435
HL-60(TB) leukemia = tested on: HL-60(TB) leukemia

## Clc1ccc2c(c1)N(CCCN1CCCC1)c1ccccc1S2
KM12 colon
  GI50: 5.14 µM
  TGI: 18.7 µM
NCI-H522 lung
  GI50: 2.23 µM
  TGI: 7.11 µM
SN12C renal
  GI50: 11.7 µM
  TGI: 27.3 µM
SR leukemia
  GI50: 2.01 µM
  TGI: 4.91 µM
DU-145 prostate
  GI50: 8.61 µM
  TGI: 20.9 µM
SF-268 CNS
  GI50: 5.75 µM
  TGI: 20.7 µM
CAKI-1 renal
  GI50: 11 µM
  TGI: 22.9 µM
ACHN renal
  GI50: 4.86 µM
  TGI: 17.9 µM
SK-MEL-5 melanoma
  GI50: 1.83 µM
  TGI: 3.32 µM
NCI-H460 lung
  GI50: 15.2 µM
  TGI: 35.4 µM
TK-10 renal
  GI50: 13 µM
  TGI: 26 µM
786-0 renal
  GI50: 5.38 µM
  TGI: 19.3 µM
SF-295 CNS
  GI50: 6.83 µM
  TGI: 21.6 µM
NCI-H226 lung
  GI50: 19.4 µM
  TGI: 48.3 µM
U251 CNS
  GI50: 6.96 µM
  TGI: 20.5 µM
OVCAR-5 ovarian
  GI50: 12.7 µM
  TGI: 28.3 µM
SNB-19 CNS
  GI50: 9.63 µM
  TGI: 28.1 µM
SK-MEL-2 melanoma
  GI50: 10.8 µM
  TGI: 23.9 µM
HOP-62 NSCLC
  GI50: 12.6 µM
  TGI: 26.6 µM
SW-620 colon
  GI50: 10.7 µM
  TGI: 25.8 µM
MALME-3M melanoma
  GI50: 3.98 µM
  TGI: 18.5 µM
NCI-H23 lung
  GI50: 10.2 µM
  TGI: 24 µM
UACC-257 melanoma
  GI50: 11.4 µM
  TGI: 23.8 µM
CCRF-CEM leukemia
  GI50: 3.93 µM
  TGI: 14.2 µM
PC-3 prostate
  GI50: 4.38 µM
  TGI: 16.1 µM
SNB-75 CNS
  GI50: 3.4 µM
  TGI: 16.4 µM
MOLT-4 leukemia
  GI50: 4.09 µM
  TGI: 15.9 µM
A498 renal
  GI50: 2.2 µM
  TGI: 10.2 µM
M14 melanoma
  GI50: 1.92 µM
  TGI: 3.97 µM
RPMI-8226 leukemia
  GI50: 7.4 µM
  TGI: 24.3 µM
RXF 393 renal
  GI50: 3.47 µM
  TGI: 12.1 µM
BT-549 breast
  GI50: 11.8 µM
  TGI: 24.4 µM
K-562 leukemia
  GI50: 2.77 µM
  TGI: 7.61 µM
MDA-MB-231 breast
  GI50: 3.42 µM
  TGI: 12.8 µM
UACC-62 melanoma
  GI50: 10.2 µM
  TGI: 25.2 µM
LOX IMVI melanoma
  GI50: 2.5 µM
  TGI: 7.14 µM
OVCAR-4 ovarian
  GI50: 7.82 µM
  TGI: 21.2 µM
T-47D breast
  GI50: 12.4 µM
  TGI: 28.5 µM
COLO 205 colon
  GI50: 2.5 µM
  TGI: 7.34 µM
OVCAR-3 ovarian
  GI50: 10.4 µM
  TGI: 22.9 µM
HOP-92 NSCLC
  GI50: 3.94 µM
  TGI: 16.2 µM
SK-MEL-28 melanoma
  GI50: 6.6 µM
  TGI: 21.4 µM
SK-OV-3 ovarian
  GI50: 6.22 µM
  TGI: 19 µM
EKVX NSCLC
  GI50: 8 µM
  TGI: 21.6 µM
HCT-15 colon
  GI50: 3.72 µM
  TGI: 13.5 µM
HCC-2998 colon
  GI50: 4.41 µM
  TGI: 15.5 µM
A549 NSCLC
  GI50: 11 µM
  TGI: 24.5 µM
HS 578T breast
  GI50: 4.92 µM
  TGI: 30.8 µM
MCF7 breast
  GI50: 3.22 µM
  TGI: 13.6 µM
NCI/ADR-RES ovarian
  GI50: 5.34 µM
  TGI: 18.8 µM
HT29 colon
  GI50: 3.71 µM
  TGI: 12.9 µM
OVCAR-8 ovarian
  GI50: 9.64 µM
  TGI: 23.4 µM
IGROV1 ovarian
  GI50: 7.84 µM
  TGI: 23.3 µM
HCT-116 colon
  GI50: 3.19 µM
  TGI: 12.1 µM
UO-31 renal
  GI50: 6.61 µM
  TGI: 20.7 µM
MDA-MB-435
  GI50: 1.92 µM
  TGI: 4.02 µM
HL-60(TB) leukemia
  GI50: 4.34 µM
  TGI: 16.8 µM
